Measured values from PubChem BioAssay (NCI).
“And” between values parts separate entries of the source, which are not always exact repeats. Equal values may be shown once.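 These data come from cells grown in 96-well plates and exposed to compound for 48 hours at five concentrations. At the GI50, growth is halved. TGI is the concentration that stops growth completely.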

How the values were obtained:
Test in all cases: growth of human tumour cells (NCI), 48 h
A549 NSCLC = test system: A549 NSCLC
HT29 colon = test system: HT29 colon
K-562 leukemia = test system: K-562 leukemia
NCI-H460 lung = test system: NCI-H460 lung
NCI-H522 lung = test system: NCI-H522 lung
SF-539 CNS = test system: SF-539 CNS
SK-MEL-2 melanoma = test system: SK-MEL-2 melanoma
T-47D breast = test system: T-47D breast
TK-10 renal = test system: TK-10 renal
U251 CNS = test system: U251 CNS

| SMILES | GI50 (A549 NSCLC) | TGI (A549 NSCLC) | GI50 (HT29 colon) | TGI (HT29 colon) | GI50 (K-562 leukemia) | TGI (K-562 leukemia) | GI50 (NCI-H460 lung) | TGI (NCI-H460 lung) | GI50 (NCI-H522 lung) | TGI (NCI-H522 lung) | GI50 (SF-539 CNS) [µM] | TGI (SF-539 CNS) | GI50 (SK-MEL-2 melanoma) | TGI (SK-MEL-2 melanoma) | GI50 (T-47D breast) | TGI (T-47D breast) | GI50 (TK-10 renal) | TGI (TK-10 renal) | GI50 (U251 CNS) | TGI (U251 CNS) |
| --- | --- | --- | --- | --- | --- | --- | --- | --- | --- | --- | --- | --- | --- | --- | --- | --- | --- | --- | --- | --- |
| O=C1C(Cl)=C(Nc2cccc(C(F)(F)F)c2)C(=O)N1Cc1ccccc1Cl | 7.68 µM | 27.5 µM | 4.9 µM | 32.9 µM | 4.36 µM | 26.5 µM | 6.19 µM | 22.4 µM | 0.49 µM | 19.8 µM | 1.91 | 10.7 µM | 4.08 µM | 19.8 µM | 12.8 µM | 40.7 µM | 14 µM | 37.5 µM | 2.1 µM | 13.8 µM |
| COc1ccc2c(c1OC)-c1c(c3ccc([N+](=O)[O-])cc3c(=O)n1CCCN=[N+]=[N-])C2=O | 4.18 µM | > 100 µM | 31.7 µM | > 100 µM | 23.3 µM | > 100 µM | 9.97 µM | > 100 µM | 3 µM | 51.7 µM | 5.23 | 40.3 µM | > 100 µM | > 100 µM | 5.29 µM | > 100 µM | > 100 µM | > 100 µM | 6.2 µM | > 100 µM |
| CC1CCC2C(C)C3C(CC4C5CC=C6CC(OC7OC(CO)C(O)C(OC8OC(CO)C(O)C(O)C8O)C7OC7OC(C)C(O)C(O)C7O)CCC6(C)C5CCC43C)N2C1 (stereo unspecified) | > 2.5 µg/mL | 16.7 µM and > 2.5 µg/mL | > 2.5 µg/mL | 25.6 µM and > 2.5 µg/mL | > 2.5 µg/mL | 54.4 µM and > 2.5 µg/mL | > 2.5 µg/mL | 37.6 µM and > 2.5 µg/mL | > 2.5 µg/mL | 35.2 µM and > 2.5 µg/mL |  | 23.8 µM | > 2.5 µg/mL | 34.8 µM and > 2.5 µg/mL | > 2.5 µg/mL | 45 µM and > 2.5 µg/mL | > 2.5 µg/mL | 30.6 µM and > 2.5 µg/mL | > 2.5 µg/mL | 31.1 µM and > 2.5 µg/mL |
| O=C1C=CN(C2OC(CO)C(O)C2O)C(=O)C1 (stereo unspecified) | 28.9 µM | 625 µM and > 2500 µM | 13 µM | 625 µM and > 1730 µM |  | > 2500 µM | 0.728 µM | 625 µM and 569 µM | > 625 µM and 518 µM | > 2320 µM | 146 | 625 µM and 1800 µM | 115 µM and 1040 µM | 625 µM and > 2500 µM |  | > 1750 µM |  | > 2500 µM | 298 µM and 289 µM | 625 µM and > 2500 µM |
| COc1ccc(NC(=O)c2sc3nc(C)c(C(O)c4ccc(OC)cc4)cc3c2N)cc1 (stereo unspecified) | 0.258 µM | > 50 µM | 1.45 µM | 19.4 µM | 0.509 µM | > 50 µM | 0.17 µM | 9.97 µM | 1.27 µM | > 50 µM | 1.02 | 4.44 µM | 1.74 µM | > 50 µM | 10.5 µM | > 50 µM | 17.1 µM | > 50 µM | 1.43 µM | > 50 µM |
| Cc1ccc2[nH]c(C(=O)NN3C(=O)CSC34CCCC(C)C4)c(-c3ccccc3)c2c1 (stereo unspecified) | 15.2 µM | 30.5 µM | 13.8 µM | 29.4 µM | 12.7 µM | 39.2 µM | 18.1 µM | 38.4 µM | 11.9 µM | 25.6 µM | 21 | 39.4 µM | 9.12 µM | 23.1 µM | 20.3 µM | 55.2 µM | 17.2 µM | 34.7 µM | 17.3 µM | 33.6 µM |
| CC(=O)NCCCCCCNC(C)=O |  | > 9660 µM |  | > 10000 µM |  | > 10000 µM |  | > 7500 µM |  | 9120 µM |  | > 10000 µM |  | > 10000 µM |  | > 10000 µM |  | > 10000 µM |  | > 10000 µM |
| CCCCCC(=O)OCC(=O)O[C@@H]1C[C@]2(C(C)C)O[C@@]1(C)[C@@H]1CC[C@@H](C)[C@H]1[C@@H]2OC(=O)/C=C/c1ccccc1 | > 60.3 µM | > 100 µM | > 37.4 µM | > 79.1 µM | > 41.3 µM | > 100 µM | > 60.6 µM | > 94.8 µM | 38.2 µM | > 76.5 µM | > 51.3 | > 76.2 µM | > 58.2 µM | > 81 µM | 10 µM | > 92.7 µM | > 51.1 µM | > 93.5 µM | > 53.1 µM | > 100 µM |
| O=C(NCCN1CCOCC1)Nc1ccc(-c2cc3c(Nc4ccc(Oc5cccc(C(F)(F)F)c5)c(Cl)c4)ncnc3s2)cc1 | 1.04 µM | 2.42 µM | 0.896 µM | 1.69 µM | 0.706 µM | 3.31 µM | 1.12 µM | 2.54 µM | 0.91 µM | 2.26 µM | 0.825 | 2.01 µM | 1.25 µM | 2.98 µM | 1.07 µM | 3.21 µM | 2.78 µM | 9.08 µM | 0.769 µM | 2.43 µM |
| CCCC(=O)NC(c1ccc2c(c1)OCO2)c1ccc2cccnc2c1O (stereo unspecified) | 2.27 µM | > 100 µM | 3.92 µM | > 100 µM | 0.976 µM | > 100 µM | 0.527 µM | 10.6 µM | 1.63 µM | > 100 µM | 1.41 | > 100 µM | 4.99 µM | > 100 µM | 2.24 µM | > 100 µM | 2.97 µM | > 100 µM | 1.15 µM | > 100 µM |
| O=C(O)C(Br)C(Br)c1ccccc1[N+](=O)[O-] (stereo unspecified) |  | > 100 µM |  | > 100 µM |  | > 100 µM |  | > 100 µM |  | > 100 µM |  | > 100 µM |  | > 100 µM |  | > 100 µM |  | > 100 µM |  | > 100 µM |
| O=C(NCCCNC(=O)OCc1ccc2c(Br)cc(Br)c(O)c2n1)OCc1ccc2c(Br)cc(Br)c(O)c2n1 | > 100 µM | > 100 µM | > 100 µM | > 100 µM | > 100 µM | > 100 µM | > 100 µM | > 100 µM | > 100 µM | > 100 µM | > 100 | > 100 µM | > 100 µM | > 100 µM | > 100 µM | > 100 µM | > 100 µM | > 100 µM | > 100 µM | > 100 µM |
| CCCCSCc1nc2nc(Cl)c(Cl)nc2[nH]1 |  | > 100 µM |  | > 100 µM |  | 99.5 µM |  | 53.8 µM |  | 42.6 µM |  | > 100 µM |  | 43.3 µM |  | 62.9 µM |  | 73.9 µM |  | 55.6 µM |
